Laboratory results from article PMC5356311, “Experimental recreation of the evolution of lignin-degrading enzymes from the Jurassic to date” (Biotechnology for Biofuels, 2017).
Read-outs that look alike come from different tables or passages of the source.

How the values were obtained:
AVP [1] = assay: steady-state kinetics, spectrophotometric ([…] nm); format: biochemical, ancestral sequence (Polyporales, reconstructed); conditions: 0.4 mM H2O2, 0.1 M tartrate, pH 3.5, 25 °C; exposed Trp site
ALiP [2] = assay: steady-state kinetics, spectrophotometric ([…] nm); format: biochemical, ancestral sequence (Polyporales, reconstructed); conditions: 0.2 mM H2O2, 0.1 M tartrate, pH 3.0, 25 °C; exposed Trp site
AVP [3] = assay: steady-state kinetics, spectrophotometric ([…] nm); format: biochemical, ancestral sequence (Polyporales, reconstructed); conditions: 0.4 mM H2O2, 0.1 M tartrate, pH 3, 25 °C; exposed Trp site
ALiP [4] = assay: steady-state kinetics, spectrophotometric ([…] nm); format: biochemical, ancestral sequence (Polyporales, reconstructed); conditions: 0.2 mM H2O2, 0.1 M tartrate, pH 3, 25 °C; exposed Trp site
AVP [5] = assay: steady-state kinetics, spectrophotometric ([…] nm); format: biochemical, ancestral sequence (Polyporales, reconstructed); conditions: 0.4 mM H2O2, 0.1 M tartrate, pH 3.5, 25 °C; biphasic kinetics, high efficiency site (exposed Trp)
CaPo-bis = conditions: saturating H2O2, 0.1 M tartrate, 25 °C; low efficiency site (heme channel)
CaPo-tris = conditions: saturating H2O2, 0.1 M tartrate, 25 °C; low efficiency site (heme channel)
ALiP [6] = conditions: read-out: ALiP; 0.2 mM H2O2, 0.1 M tartrate, pH 3.5, 25 °C; high efficiency site (exposed Trp)
CaCD [7] = conditions: read-out: CaCD; 0.4 mM H2O2, 0.1 M tartrate, pH 3.5, 25 °C; low efficiency site (heme channel)
CaCD [8] = assay: steady-state kinetics, spectrophotometric ([…] nm); format: biochemical, ancestral sequence (Polyporales, reconstructed); conditions: 0.4 mM H2O2, 0.1 M tartrate, pH 3.0, 25 °C; low efficiency site (heme channel)
CaPo = assay: steady-state kinetics, spectrophotometric ([…] nm); format: biochemical, ancestral sequence (Polyporales, reconstructed); conditions: 0.4 mM H2O2, 0.1 M tartrate, pH 2, 25 °C; low efficiency site (heme channel)
AVP [9] = assay: steady-state kinetics, spectrophotometric ([…] nm); format: biochemical, ancestral sequence (Polyporales, reconstructed); conditions: 0.4 mM H2O2, 0.1 M tartrate, pH 3.0, 25 °C; biphasic kinetics, high efficiency site (exposed Trp)
ALiP [10] = assay: steady-state kinetics, spectrophotometric ([…] nm); format: biochemical, ancestral sequence (Polyporales, reconstructed); conditions: 0.2 mM H2O2, 0.1 M tartrate, pH 3.0, 25 °C; high efficiency site (exposed Trp)
purified protein [11] = substrate: CCn1c(=NN=c2sc3cc(S(=O)(=O)O)ccc3n2CC)sc2cc(S(=O)(=O)O)ccc21; assay: purified protein; format: biochemical, Phanerodontia chrysosporium; conditions: 0.1 mM H2O2, 0.1 M tartrate, pH 3.5, 25 °C, high efficiency site (exposed Trp)
purified protein [12] = substrate: COc1ccc(CO)cc1OC; assay: purified protein; format: biochemical, Phanerodontia chrysosporium; conditions: 0.1 mM H2O2, 0.1 M tartrate, pH 3.0, 25 °C, exposed Trp site
purified protein [13] = substrate: COc1cccc(OC)c1O; assay: purified protein; format: biochemical, Phanerodontia chrysosporium; conditions: 0.1 mM H2O2, 0.1 M tartrate, pH 3.0, 25 °C, high efficiency site (exposed Trp)

**Q.** How did the Km (AVP [1]) turn out when `COc1ccc(CO)cc1OC` [VA] was run?
**A.** The Km was 299 ± 104 µM.

**Q.** And the Km (ALiP [2])?
**A.** Its Km is 773 ± 155 µM.

**Q.** With `Nc1c(N=Nc2ccc(S(=O)(=O)CCOS(=O)(=O)O)cc2)c(S(=O)(=O)O)cc2cc(S(=O)(=O)O)c(N=Nc3ccc(S(=O)(=O)CCOS(=O)(=O)O)cc3)c(O)c12` [RB5] as the molecule, how does the Km (AVP [3]) read?
**A.** Its Km is 4.8 ± 0.8 µM.

**Q.** What about the Km (ALiP [4]) of the same molecule?
**A.** The Km was 12.6 ± 3.6 µM.

**Q.** How did the Km (AVP [5]) turn out when `CCn1c(=NN=c2sc3cc(S(=O)(=O)O)ccc3n2CC)sc2cc(S(=O)(=O)O)ccc21` [ABTS] was run?
**A.** The Km was 5.4 ± 0.7 µM.

**Q.** And the Km (CaPo-bis)?
**A.** Its Km is 1390 ± 345 µM.

**Q.** What about the Km (CaPo-tris) of the same molecule?
**A.** Its Km is 807 ± 104 µM.

**Q.** What about the Km (ALiP [6]) of the same molecule?
**A.** Its Km is 13.7 ± 3.5 µM.

**Q.** What about the Km (CaCD [7]) of the same molecule?
**A.** The Km was 1280 ± 350 µM.

**Q.** Which Km (CaCD [8]) does the source give for `COc1cccc(OC)c1O` [DMP] here?
**A.** The Km was 66800 µM.

**Q.** And the Km (CaPo)?
**A.** Its Km is 32900 µM.

**Q.** What about the Km (AVP [9]) of the same molecule?
**A.** Its Km is 5.3 ± 1.1 µM.

**Q.** And the Km (ALiP [10])?
**A.** The Km was 34 ± 5.4 µM.

B1: LiPH8 (Phanerodontia chrysosporium) (protein)
chain: ATCSNGKTVGDASCCAWFDVLDDIQQNLFHGGQCGAEAHESIRLVFHDSIAISPAMEAQGKFGGGGADGSIMIFDDIETAFHPNIGLDEIVKLQKPFVQKHGVTPGDFIAFAGRVALSNCPGAPQMNFFTGRAPATQPAPDGLVPEPFHTVDQIINRVNDAGEFDELELVWMLSAHSVAAVNDVDPTVQGLPFDSTPGIFDSQFFVETQLRGTAFPGSGGNQGEVESPLPGEIRIQSDHTIARDSRTACEWQSFVNNQSKLVDDFQFIFLALTQLGQDPNAMTDCSDVIPQSKPIPGNLPFSFFPAGKTIKDVEQACAETPFPTLTTLPGPETSVQRIPPPPGA
**Q.** For B1, which Km (purified protein [11]) is on record?
**A.** Its Km is 21.3 ± 2.3 µM.

**Q.** And the kcat (purified protein [11])?
**A.** The kcat was 6.5 ± 0.2 s⁻¹.

**Q.** And the kcat/Km (purified protein [11])?
**A.** Its kcat/Km is 300000 ± 25000 M⁻¹ s⁻¹.

**Q.** What about the Km (purified protein [12]) of the same molecule?
**A.** Its Km is 79.3 ± 18 µM.

**Q.** And the kcat (purified protein [12])?
**A.** Its kcat is 16.2 ± 0.8 s⁻¹.

**Q.** And the kcat/Km (purified protein [12])?
**A.** The kcat/Km was 205000 ± 4000 M⁻¹ s⁻¹.

**Q.** What about the Km (purified protein [13]) of the same molecule?
**A.** The Km was 4.0 ± 0.07 µM.
